According to ChEMBL document CHEMBL1287771, “Novel hybrids of 15-membered 8a- and 9a-azahomoerythromycin A ketolides and quinolones as potent antibacterials” (2010):
In brackets after ≈: the same amount, converted by molar mass.

Key:
Assay type in all cases: functional
[1] = tested on: Streptococcus pyogenes; experiment: Antibacterial activity against inducible macrolide-lincosamide-streptogramin B-resistant Streptococcus pyogenes B0543 by agar microdilution method
[2] = tested on: Streptococcus pyogenes; experiment: Antibacterial activity against erythromycin A-susceptible Streptococcus pyogenes B0542 by agar microdilution method
[3] = tested on: Streptococcus pneumoniae; experiment: Antibacterial activity against efflux-resistant Streptococcus pneumoniae B0326 by agar microdilution method
[4] = tested on: Streptococcus pneumoniae; experiment: Antibacterial activity against constitutive macrolide-lincosamide-streptogramin B-resistant Streptococcus pneumoniae B0627 by agar microdilution method
[5] = tested on: Streptococcus pneumoniae; experiment: Antibacterial activity against erythromycin A-susceptible Streptococcus pneumoniae B0541 by agar microdilution method
[6] = tested on: Staphylococcus aureus; experiment: Antibacterial activity against efflux-resistant Staphylococcus aureus B0331 by agar microdilution method
[7] = tested on: Staphylococcus aureus; experiment: Antibacterial activity against constitutive macrolide-lincosamide-streptogramin B-resistant Staphylococcus aureus B0330 by agar microdilution method
[8] = tested on: Staphylococcus aureus; experiment: Antibacterial activity against inducible macrolide-lincosamide-streptogramin B-resistant Staphylococcus aureus B0538 by agar microdilution method
[9] = tested on: Staphylococcus aureus; experiment: Antibacterial activity against erythromycin A-susceptible Staphylococcus aureus B0329 by agar microdilution method
[10] = tested on: Streptococcus pyogenes; experiment: Antibacterial activity against constitutive macrolide-lincosamide-streptogramin B-resistant Streptococcus pyogenes B0544 by agar microdilution method
[11] = tested on: Streptococcus pyogenes; experiment: Antibacterial activity against efflux-resistant Streptococcus pyogenes B0545 by agar microdilution method
[12] = tested on: Moraxella catarrhalis; experiment: Antibacterial activity against Moraxella catarrhalis B0324 by agar microdilution method
[13] = tested on: Haemophilus influenzae; experiment: Antibacterial activity against Haemophilus influenzae B0529 by agar microdilution method

| SMILES | MIC [1] [µg/mL] | MIC [2] [µg/mL] | MIC [3] [µg/mL] | MIC [4] [µg/mL] | MIC [5] [µg/mL] | MIC [6] [µg/mL] | MIC [7] [µg/mL] | MIC [8] [µg/mL] | MIC [9] [µg/mL] | MIC [10] [µg/mL] | MIC [11] [µg/mL] | MIC [12] [µg/mL] | MIC [13] [µg/mL] |
| --- | --- | --- | --- | --- | --- | --- | --- | --- | --- | --- | --- | --- | --- |
| CC[C@H]1OC(=O)[C@H](C)C(=O)[C@H](C)[C@@H](O[C@@H]2O[C@H](C)C[C@H](N(C)C)[C@H]2O)[C@](C)(OCC(O)CN2CCN(c3ccc4c(c3F)c(=O)c(C(=O)OC)cn4C3CC3)CC2)C[C@@H](C)NC(=O)[C@H](C)[C@H](O)[C@@]1(C)O (stereo partly specified) | > 64 | 0.125 (≈ 0.126 µM) | 0.25 (≈ 0.252 µM) | > 64 | 0.125 (≈ 0.126 µM) | 32 (≈ 32.3 µM) | > 64 | > 64 | 4 (≈ 4.04 µM) | > 64 | 16 (≈ 16.2 µM) | 0.5 (≈ 0.505 µM) | 4 (≈ 4.04 µM) |
| CC[C@H]1OC(=O)[C@H](C)C(=O)[C@H](C)[C@@H](O[C@@H]2O[C@H](C)C[C@H](N(C)C)[C@H]2O)[C@](C)(OC/C=C/c2cccc3ccccc23)C[C@@H](C)NC(=O)[C@H](C)[C@H](O)[C@@]1(C)O | 4 (≈ 5.3 µM) | 0.25 (≈ 0.331 µM) | 2 (≈ 2.65 µM) | > 64 | ≤ 0.125 | 4 (≈ 5.3 µM) | > 64 | 2 (≈ 2.65 µM) | 1 (≈ 1.32 µM) | > 64 | 2 (≈ 2.65 µM) | 0.25 (≈ 0.331 µM) | 8 (≈ 10.6 µM) |
| CC[C@H]1OC(=O)[C@H](C)C(=O)[C@H](C)[C@@H](O[C@@H]2O[C@H](C)C[C@H](N(C)C)[C@H]2O)[C@](C)(OCC(O)CNc2ccc3ncccc3c2)C[C@@H](C)NC(=O)[C@H](C)[C@H](O)[C@@]1(C)O (stereo partly specified) | 4 (≈ 5.07 µM) | ≤ 0.125 | 2 (≈ 2.53 µM) | 8 (≈ 10.1 µM) | ≤ 0.125 | 1 (≈ 1.27 µM) | 64 (≈ 81.1 µM) | 2 (≈ 2.53 µM) | 2 (≈ 2.53 µM) | 16 (≈ 20.3 µM) | 8 (≈ 10.1 µM) | 0.5 (≈ 0.634 µM) | ≤ 0.125 |
| CC[C@H]1OC(=O)[C@H](C)C(=O)[C@H](C)[C@@H](O[C@@H]2O[C@H](C)C[C@H](N(C)C)[C@H]2O)[C@](C)(OCC(O)CNCCc2ccccc2)C[C@@H](C)NC(=O)[C@H](C)[C@H](O)[C@@]1(C)O (stereo partly specified) | 1 (≈ 1.31 µM) | 0.5 (≈ 0.653 µM) | 16 (≈ 20.9 µM) | 8 (≈ 10.4 µM) | 0.25 (≈ 0.326 µM) | 8 (≈ 10.4 µM) | > 64 | 16 (≈ 20.9 µM) | 4 (≈ 5.22 µM) | 16 (≈ 20.9 µM) | 1 (≈ 1.31 µM) | 0.5 (≈ 0.653 µM) | 16 (≈ 20.9 µM) |
| CC[C@H]1OC(=O)[C@H](C)C(=O)[C@H](C)[C@@H](O[C@@H]2O[C@H](C)C[C@H](N(C)C)[C@H]2O)[C@](C)(OC[C@H](O)CN2CCN(c3ccc4c(c3F)c(=O)c(C(=O)O)cn4C3CC3)CC2)C[C@@H](C)NC(=O)[C@H](C)[C@H](O)[C@@]1(C)O | 0.5 (≈ 0.512 µM) | ≤ 0.125 | 0.25 (≈ 0.256 µM) | 0.5 (≈ 0.512 µM) | ≤ 0.125 | 0.5 (≈ 0.512 µM) | 8 (≈ 8.2 µM) | 0.25 (≈ 0.256 µM) | ≤ 0.125 | 4 (≈ 4.1 µM) | 0.5 (≈ 0.512 µM) | 0.5 (≈ 0.512 µM) | 0.25 (≈ 0.256 µM) |
| CC[C@H]1OC(=O)[C@H](C)C(=O)[C@H](C)[C@@H](O[C@@H]2O[C@H](C)C[C@H](N(C)C)[C@H]2O)[C@](C)(OCC(O)CN2CCN(c3ccc4c(c3)c(=O)c(C(=O)O)cn4C3CC3)CC2)C[C@@H](C)NC(=O)[C@H](C)[C@H](O)[C@@]1(C)O (stereo partly specified) | 0.25 (≈ 0.261 µM) | ≤ 0.125 | 0.5 (≈ 0.522 µM) | 1 (≈ 1.04 µM) | ≤ 0.125 | 2 (≈ 2.09 µM) | > 64 | 0.25 (≈ 0.261 µM) | 0.25 (≈ 0.261 µM) | 4 (≈ 4.17 µM) | 2 (≈ 2.09 µM) | 1 (≈ 1.04 µM) | 2 (≈ 2.09 µM) |
| CC[C@H]1OC(=O)[C@H](C)[C@@H](O[C@H]2C[C@@](C)(OC)[C@@H](O)[C@H](C)O2)[C@H](C)[C@@H](O[C@@H]2O[C@H](C)C[C@H](N(C)C)[C@H]2O)[C@](C)(O)C[C@@H](C)CN(C)[C@H](C)[C@@H](O)[C@]1(C)O [AZITHROMYCIN] | 8 (≈ 10.7 µM) | ≤ 0.125 | 4 (≈ 5.34 µM) | > 64 | ≤ 0.125 | > 64 | > 64 | > 64 | 1 (≈ 1.34 µM) | > 64 | 1 (≈ 1.34 µM) | 0.25 (≈ 0.334 µM) | 1 (≈ 1.34 µM) |
